Assay results from PubChem BioAssay AID179 (DTP/NCI, 2004).
Several values for one entry are separate records, joined by “and”; a condition that tells them apart may be missing. Identical values can stand only once.

System: CEM cells HIV-1 protection, formazan growth assay
Assay: NCI AIDS Antiviral Assay
Conditions: for IC50: measured here: growth of uninfected CEM cells
Procedure, shortened: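 CEM (human) cells, HIV-1 infected vs uninfected, 5-point dosing, formazan growth read-out. Retest threshold 50% protection.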

SMILES	EC50 [µM]	IC50
COc1cc(-c2oc3cc(OC)c(OC)c(OC)c3c(=O)c2OC)cc(OC)c1OC	> 200	26.3 µM
CSc1ccc(NC(=O)C2c3[nH]c4ccccc4c3C3CCC(C(C)(C)C)CC3C2C(=O)O)cc1 (stereo unspecified)	> 7.76	> 7.76 µM
CC(=O)NC(CC(C)C(C)=O)(C(=O)O)C(=O)O (stereo unspecified)	> 200	> 200 µM
CCOC1OC(COC(=O)C(C)(C)C)C(O)CC1n1cc(C)c(=O)[nH]c1=O (stereo unspecified)	> 200	> 200 µM
CCOC(=O)c1ccc(CS(=O)c2ccccc2)c([N+](=O)[O-])c1 (stereo unspecified)	> 204	3.47 µM
CC(C)CCCC(C)[C@H]1CC[C@@H]2[C@H]3CC[C@H]4C[C@@H](CCC=C(c5cc(Cl)c(OCc6cccc([N+](=O)[O-])c6)c(C(=O)OCc6cccc([N+](=O)[O-])c6)c5)c5cc(Cl)c(OCc6cccc([N+](=O)[O-])c6)c(C(=O)OCc6cccc([N+](=O)[O-])c6)c5)CC[C@]4(C)[C@@H]3CC[C@]12C (stereo partly specified)	> 100	> 100 µM
O=C(Nc1ccc(Cl)cc1)C(=O)C1=C(O)c2ccccc2OC1	> 102	> 102 µM
Cc1nc(-n2nc(-c3ccccc3)cc2-c2ccccc2)sc1C(=O)/C=C/c1ccc(/C=C/C(=O)c2sc(-n3nc(-c4ccccc4)cc3-c3ccccc3)nc2C)cc1	> 22.9	> 22.9 µM
COC(=O)C1C2C(=O)NC(=O)C2C(c2ccc(-c3ccccc3)cc2)N1C1CCCCC1 (stereo unspecified)	> 135	19.1 µM
c1ccc2c(c1)cnn1cnnc21	> 1480	661 µM
N#C/C(N)=C(\C#N)N=CNc1ccc(N)cc1	> 200	> 100 µM
O=C(CC1(O)C(=O)Nc2ccc([N+](=O)[O-])cc21)c1ccncc1 (stereo unspecified)	> 20.9	> 20.9 µM
Nc1cccc2cc(Cl)cnc12	> 200	> 200 µM
CCC1(O)CC(OC2CC(N(C)C)C(OC3CC4OC5CC(=O)C(C)OC5OC4C(C)O3)C(C)O2)c2c(cc3c(c2O)C(=O)c2c(O)ccc(O)c2C3=O)C1C(=O)OC (stereo unspecified)	> 2.4	0.0155 µM and 0.012 µM
CC1(C)/C(=C/N=O)N(O)C(C)(C)N1O	> 200	120 µM
CC(=O)Nc1ccc(/C=N/NC(=S)NC2CN3CCC2CC3)cc1 (stereo unspecified)	> 200	> 200 µM
CN(Cc1ccccc1)c1cc(=O)n(C)c(=O)[nH]1	> 200	> 200 µM
CCCCCCCCNC(=O)C1=C(C)NC(C)=C(C(=O)NCCCCCCCC)C1	> 200	97.7 µM
CC(C)CCC[C@@H](C)[C@H]1CC[C@H]2[C@@H]3CC[C@H]4C[C@@H](CC/C=C(/c5ccc(OCc6ccccc6B(O)O)c(C(=O)O)c5)c5cc(Cl)c(OCc6ccccc6B(O)O)c(C(=O)O)c5)CC[C@]4(C)[C@H]3CC[C@]12C	> 200	> 200 µM
CC(=O)NC1C(CO)OC(n2cnc([N+](=O)[O-])c2C(N)=O)C1O (stereo unspecified)	> 200	> 200 µM
CC12CCC(=O)N1c1ccc(Cl)cc1N2 (stereo unspecified)	> 115	> 115 µM
CC(C)(C)OC(=O)NCCNC(=O)CN(CC(=O)O)C1CCCCC1N(CC(=O)O)CC(=O)O (stereo unspecified)	> 200	170 µM
CC[C@]12CN3CCc4c([nH]c5ccccc45)[C@@](C(=O)OC)(c4cc5c(cc4OC)N(C)[C@H]4[C@@](O)(C(=O)OC)[C@H](OC(C)=O)[C@]6(CC)C=CCN7CC[C@]54[C@@H]76)CC(C3)[C@H]1O2 (stereo partly specified)	> 2	0.141 µM and 0.0447 µM
NC(CSSCC(N)Cc1ccccc1)Cc1ccccc1 (stereo unspecified)	> 617	20.4 µM
O=C(Nn1cc(F)c(=O)[nH]c1=O)C12CC3CC(CC(C3)C1)C2	> 200	8.91 µM
O=C(NCC(=O)N1CCCC1C(=O)OC(=O)C1CCCN1C(=O)CNC(=O)OCc1ccccc1)OCc1ccccc1 (stereo unspecified)	> 38	30.2 µM
CCCCCCN(CCCCCC)C(=O)Cc1c2n(c3ccccc13)Cc1ccccc1-2	> 6.31	> 6.31 µM
Cn1cnc([N+](=O)[O-])c1Sc1nc(N)nc2nc[nH]c12	> 200	3.39 µM
